Our source for the Activity and IC50 values is ChEMBL document CHEMBL1150138, “The isolation of two new chromone derivatives from the New Zealand fungus Tolypocladium extinguens” (2002).

One assay deals with Bacillus subtilis. Nature of the assay: Antimicrobial activity against Bacillus subtilis by disk susceptibility test. It is filed as functional, organism-based.
The next assay relates to Candida albicans. Nature of the assay: Antimicrobial activity against Candida albicans by disk susceptibility test. The class given is functional, organism-based.
The test system of assay [1] is Trichophyton mentagrophytes. Briefly: Antimicrobial activity against Trichophyton mentagrophytes by disk susceptibility test. It is filed as functional, organism-based.
The next assay relates to Escherichia coli. Nature of the assay: Antimicrobial activity against Escherichia coli by disk susceptibility test. It is filed as functional, organism-based.
The subject of the next assay is Pseudomonas aeruginosa. Briefly: Antimicrobial activity against Pseudomonas aeruginosa by disk susceptibility test. The class given is functional, organism-based.
The test system of another assay is Amorphotheca resinae. Briefly: Antimicrobial activity against Cladosporium resinae by disk susceptibility test. It is filed as functional, organism-based.
The test system of another assay is P388. Nature of the assay: Cytotoxicity against mouse P388 cells after 1 to 11 days by MTT assay. The class given is functional. The note with it: read-out: ID50 (the source's name).

Each structure is given as a SMILES string. Values after ≈ are worked out from the molar mass of the structure shown. Active and inactive are the calls of the source. No cut-off for these calls is given here.

With `COCc1c(OC)cc2oc(CO)cc(=O)c2c1O`, the result (in the assay on Bacillus subtilis; in the assay on Candida albicans; in assay [1]; in the assay on Escherichia coli; in the assay with Pseudomonas aeruginosa; in the assay on Amorphotheca resinae) was inactive.
For the compound `COc1cc2oc(C)cc(=O)c2c(O)c1CO`, the outcome (in the assay with Bacillus subtilis; with Candida albicans; in assay [1]; with Escherichia coli; with Pseudomonas aeruginosa; in the assay on Amorphotheca resinae) was inactive.
`COCc1c(OC)cc2oc(C)cc(=O)c2c1O`: the outcome (in the assay on Bacillus subtilis; in the assay on Candida albicans; in assay [1]; in the assay with Escherichia coli; with Pseudomonas aeruginosa; in the assay on Amorphotheca resinae) was inactive. For the same compound, the IC50 in the assay with P388 turned out to be 6 µg/mL (≈ 24 µM).
